Activity calls are given as the source filed them. The rule behind the calls is not given here.
System: mouse cells, CHOP mRNA qRT-PCR
Assay: CHOP mRNA level inhibitors by qRT-PCR in mouse cells at medium throughput (AID 652063)

`CCN=C1NN=C(c2cc(C)n(Cc3ccco3)c2C)CS1` was tested. Which IC50 did it give?
Its IC50 is 3.73 µM (inactive).

How did the IC50 turn out when `Cc1cc(C2=NNC(=NC3CC3)SC2)c(C)n1-c1ccccc1` was run?
Its IC50 is 3.58 µM (inactive).

Which IC50 does the source give for `CC(C)(C)c1ccc(-c2noc(CCC(N)=O)n2)cc1` here?
Its IC50 is > 20 µM (inactive).

Which IC50 does the source give for `Cc1nn(C(C)(C)C)c(C)c1/C=N/OC(=O)Nc1ccc(Cl)cc1` here?
The IC50 was 18.4 µM (inactive).

For `CC(C)(C)c1ccc(C(=O)Nc2ccc(CC(=O)O)cc2)o1`, which IC50 is on record?
The IC50 was > 20 µM (inactive).

How did the IC50 turn out when `C=CCn1c(C)cc(C2=NN=C(NCC)SC2)c1C` was run?
Its IC50 is 6.18 µM (inactive).

With `Cc1cc(C(=O)COC(=O)c2ccccc2O)c(C)n1Cc1cccs1` as the molecule, how does the IC50 read?
Its IC50 is 6.12 µM (inactive).

Which IC50 does the source give for `Cc1ccc(NC(=O)O/N=C/c2c(C)nn(C(C)(C)C)c2C)cc1Cl` here?
The IC50 was 4.53 µM (inactive).

`Cc1cc(C2=NNC(=NC3CC3)SC2)c(C)n1-c1ccccc1F` was tested. Which IC50 did it give?
Its IC50 is 2.89 µM (inactive).

How did the IC50 turn out when `CCOc1ccc(-c2nc(CSCC(=O)NCc3ccco3)c(C)o2)cc1` was run?
The IC50 was 4.37 µM (inactive).

`Cc1ccc(NC(=O)c2cc3ccccc3oc2=O)cc1S(=O)(=O)N(C)C` was tested. Which IC50 did it give?
The IC50 was > 20 µM (inactive).

Source: PubChem BioAssay AID652063 (Molecular Libraries Program, Specialized Chemistry Center, …, 2013)
